Target: T1, Ngs1 (Candida albicans, UniProt A0A1D8PRM0)
T1 construct: full length (963 aa), N-terminal 3xFLAG tag, expressed from NGS1 promoter in C. albicans ngs1 mutant; protein extract
Assay: GlcNAc-agarose pull-down from protein extract, competition with free GlcNAc, anti-FLAG Western blot
Format: binding
Details: 100 mM free GlcNAc as competitor; 4 °C overnight; GH3 homology domain site

T1 sequence (A0A1D8PRM0 entry or part of it): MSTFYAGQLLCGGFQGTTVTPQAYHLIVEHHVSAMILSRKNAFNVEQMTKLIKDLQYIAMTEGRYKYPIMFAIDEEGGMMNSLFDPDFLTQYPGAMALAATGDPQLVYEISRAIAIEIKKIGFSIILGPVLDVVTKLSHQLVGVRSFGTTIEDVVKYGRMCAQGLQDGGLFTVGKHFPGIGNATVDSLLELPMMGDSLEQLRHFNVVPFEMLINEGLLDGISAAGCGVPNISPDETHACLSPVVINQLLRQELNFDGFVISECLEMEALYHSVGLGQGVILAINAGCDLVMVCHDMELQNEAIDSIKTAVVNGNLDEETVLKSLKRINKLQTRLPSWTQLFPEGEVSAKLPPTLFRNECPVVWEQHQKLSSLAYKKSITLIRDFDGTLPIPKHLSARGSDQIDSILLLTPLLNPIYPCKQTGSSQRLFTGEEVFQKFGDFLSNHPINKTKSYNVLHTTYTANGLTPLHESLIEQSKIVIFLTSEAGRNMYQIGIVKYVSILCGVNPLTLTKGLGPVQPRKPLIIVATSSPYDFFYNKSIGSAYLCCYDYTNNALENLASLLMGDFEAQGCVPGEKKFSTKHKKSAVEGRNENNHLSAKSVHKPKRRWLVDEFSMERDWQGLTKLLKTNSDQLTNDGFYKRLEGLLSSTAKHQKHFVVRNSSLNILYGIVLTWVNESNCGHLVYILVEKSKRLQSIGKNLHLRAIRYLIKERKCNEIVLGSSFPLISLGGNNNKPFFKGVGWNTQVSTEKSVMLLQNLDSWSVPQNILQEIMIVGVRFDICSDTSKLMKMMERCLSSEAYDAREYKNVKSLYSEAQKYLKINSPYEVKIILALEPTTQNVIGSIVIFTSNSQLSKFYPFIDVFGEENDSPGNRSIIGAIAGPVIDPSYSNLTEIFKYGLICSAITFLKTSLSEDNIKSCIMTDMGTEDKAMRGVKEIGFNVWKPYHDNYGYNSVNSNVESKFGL

CC(=O)N[C@H]1C(O)O[C@H](CO)[C@@H](O)[C@@H]1O (stereo partly shown) [GlcNAc]
GlcNAc-agarose pull-down from protein extract, competition with free GlcNAc, ant: The binding of GlcNAc-agarose with FLAG-Ngs1 was greatly reduced when free GlcNAc was added

Source: publication PMC5063960, “N-acetylglucosamine sensing by a GCN5-related N-acetyltransferase induces transcription via chromatin histone acetylation in fungi” (Nature Communications, 2016)
